This passage reports solubility results from patent publication US9944659B2, “Boron-containing diacylhydrazine compounds” (Intrexon Corporation, priority 2014, dated 2018).

By solubility is commonly meant the concentration that dissolves in the medium under given conditions.

Values after ≈ are worked out from the molar mass of the structure shown. Like-named read-outs stand apart in the source and are kept apart here.

The data set can be described thus: Solubility (24 hrs equilibration at RT, HPLC-UV). Conditions: thermodynamic from solid, target concentration 5 mg/ml, 24 hrs at RT. Format: physicochemical. The protocol:
Representative Compounds of the Disclosure were tested for solubity (Table 4) as follows:
0.1 M Phosphate Buffer Ionic Strength ˜0.15M
Simulated Intestinal Fluid pH 7.5 (USP)
Weigh ˜2 mgs of compound into clean glass 1 dram vails.
Add ˜[…] of appropriate media to vial to yield a target concentration of 5 mg/ml.
Place vials on a rotating shaker and equilibrate for 24 hrs. at RT.
Remove supernatant to microcentrifuge tubes and centrifuge at 1300 rpm for 30 minutes.
Remove an aliquot of supernatant, dilute accordingly with acetonitrile.
Assay Samples by HPLC-UV Against Standards.

Where [1] appears, read: biorelevant, Simulated Intestinal Fluid pH 7.5 (USP), read-out: Solubility SIF.
The mark [2] stands for this setting: pH 7.4, aqueous buffer, 0.1 M Phosphate Buffer, read-out: Solubility pH 7.4.

In the case of `Cc1cc(C)cc(C(=O)N(NC(=O)c2ccc3c(c2)NC(=S)N(c2ccccc2)B3O)C(C)(C)C)c1` [compound 4, N′-(tert-butyl)-N′-(3,5-dimethylbenzoyl)-1-hydroxy-2-phenyl-3-thioxo-1,2,3,4-tetrahydrobenzo[c][1,5,2]diazaborinine-6-carbohydrazide], the solubility at 24 h by setting is: under setting [1], 2640 µg/mL (≈ 5280 µM); under setting [2], 3560 µg/mL (≈ 7120 µM).
Regarding `Cc1cc(C)cc(C(=O)N(NC(=O)c2ccc(B(O)O)c(NS(=O)(=O)c3ccccc3)c2)C(C)(C)C)c1` [compound 7, (4-(2-(tert-butyl)-2-(3,5-dimethylbenzoyl)hydrazine-1-carbonyl)-2-(phenylsulfonamido)phenyl)boronic acid], the solubility at 24 h reads like this: under setting [1], 10.7 µg/mL (≈ 20.4 µM); under setting [2], 4.1 µg/mL (≈ 7.83 µM).
On to `Cc1cc(C)cc(C(=O)N(NC(=O)c2ccc(B(O)O)c(NCC#N)c2)C(C)(C)C)c1` [compound 17, (4-(2-(tert-butyl)-2-(3,5-dimethylbenzoyl)hydrazine-1-carbonyl)-2-((cyanomethyl)amino)phenyl)boronic acid], for which the solubility at 24 h is 59.3 µg/mL (≈ 140 µM) under setting [1] and 0.13 µg/mL (≈ 0.308 µM) under setting [2].
The matching figures for `Cc1cc(C)cc(C(=O)NNC(=O)c2ccc3c(c2)N=C(C(F)(F)F)OB3O)c1` [compound 6, N′-(3,5-dimethylbenzoyl)-1-hydroxy-3-(trifluoromethyl)-1H-benzo[c][1,5,2]oxazaborinine-6-carbohydrazide]: 0.4 µg/mL (≈ 0.987 µM) and 1.7 µg/mL (≈ 4.2 µM).
The matching figures for `CC1=Nc2cc(C(=O)NN(C(=O)c3cc(C)cc(C)c3)C(C)(C)C)ccc2B(O)O1` [compound 2, N′-(tert-butyl)-N′-(3,5-dimethylbenzoyl)-1-hydroxy-3-methyl-1H-benzo[c][1,5,2]oxazaborinine-6-carbohydrazide]: 4050 µg/mL (≈ 9940 µM) and 4310 µg/mL (≈ 10600 µM).
Consider `COc1cccc(C(=O)NN(C(=O)c2ccc3c(c2)N=C(C)OB3O)C(C)(C)C)c1C` [compound 12, N-(tert-butyl)-1-hydroxy-N′-(3-methoxy-2-methylbenzoyl)-3-methyl-1H-benzo[c][1,5,2]oxazaborinine-6-carbohydrazide], for which the solubility at 24 h by setting is: under setting [1], 3800 µg/mL (≈ 8970 µM); under setting [2], 3760 µg/mL (≈ 8880 µM).
Take `COc1cccc(C(=O)NN(C(=O)c2ccc3c(c2)B(O)OC3)C(C)(C)C)c1C` [compound 8, N-(tert-butyl)-1-hydroxy-N′-(3-methoxy-2-methylbenzoyl)-1,3-dihydrobenzo[c][1,2]oxaborole-6-carbohydrazide]: the solubility at 24 h reads like this: under setting [1], 121 µg/mL (≈ 305 µM); under setting [2], 42.3 µg/mL (≈ 107 µM).
As to `CNCc1ccc(C(=O)NN(C(=O)c2cc(C)cc(C)c2)C(C)(C)C)cc1B(O)O` [compound 10, (5-(2-(tert-butyl)-2-(3,5-dimethylbenzoyl)hydrazine-1-carbonyl)-2-((methylamino)methyl)phenyl)boronic acid], the solubility at 24 h under setting [1] was 4800 µg/mL (≈ 11700 µM) and the solubility at 24 h under setting [2] stood at 4870 µg/mL (≈ 11800 µM).
Consider `Cc1cc(C)cc(C(=O)N(NC(=O)c2ccc(CC#N)c(B(O)O)c2)C(C)(C)C)c1` [compound 19, (5-(2-(tert-butyl)-2-(3,5-dimethylbenzoyl)hydrazine-1-carbonyl)-2-(cyanomethyl)phenyl)boronic acid], for which the solubility at 24 h was 31.4 µg/mL (≈ 77.1 µM) under setting [1] and 16.8 µg/mL (≈ 41.2 µM) under setting [2].
Regarding `Cc1cc(C)cc(C(=O)N(NC(=O)c2ccc3c(c2)B(O)NC3)C(C)(C)C)c1` [compound 1, N′-(tert-butyl)-N′-(3,5-dimethylbenzoyl)-1-hydroxy-2,3-dihydro-1H-benzo[c][1,2]azaborole-6-carbohydrazide], the solubility at 24 h is 4870 µg/mL (≈ 12900 µM) under setting [1] and above 5000 µg/mL under setting [2].
With `COc1cccc(C(=O)NN(C(=O)c2ccc3c(c2)N=COB3O)C(C)(C)C)c1C` [compound 13, N-(tert-butyl)-1-hydroxy-N′-(3-methoxy-2-methylbenzoyl)-1H-benzo[c][1,5,2]oxazaborinine-6-carbohydrazide], the solubility at 24 h under setting [1] is 334 µg/mL (≈ 815 µM) and the solubility at 24 h under setting [2] was determined as 221 µg/mL (≈ 540 µM).
Consider `Cc1cc(C)cc(C(=O)N(NC(=O)c2ccc3c(c2)B(O)ON=C3)C(C)(C)C)c1` [compound 20, N′-(tert-butyl)-N′-(3,5-dimethylbenzoyl)-1-hydroxy-1H-benzo[d][1,2,6]oxazaborinine-7-carbohydrazide], for which the solubility at 24 h runs as follows: under setting [1], 3330 µg/mL (≈ 8470 µM); under setting [2], 2680 µg/mL (≈ 6820 µM).
The matching figures for `COc1cccc(C(=O)NN(C(=O)c2ccc3c(c2)B(O)NC3)C(C)(C)C)c1C` [compound 9, N-(tert-butyl)-1-hydroxy-N′-(3-methoxy-2-methylbenzoyl)-2,3-dihydro-1H-benzo[c][1,2]azaborole-6-carbohydrazide]: 4510 µg/mL (≈ 11400 µM) and 4920 µg/mL (≈ 12400 µM).
The matching figures for `Cc1cc(C)cc(C(=O)N(NC(=O)c2ccc(CN(C)C)c(B(O)O)c2)C(C)(C)C)c1` [compound 11, (5-(2-(tert-butyl)-2-(3,5-dimethylbenzoyl)hydrazine-1-carbonyl)-2-((dimethylamino)methyl)phenyl)boronic acid]: 4650 µg/mL (≈ 10900 µM) and 4700 µg/mL (≈ 11100 µM).
With `COc1cccc(C(=O)NN(C(=O)c2ccc3c(c2)NC(=O)N(c2ccccc2)B3O)C(C)(C)C)c1C` [compound 15, N-(tert-butyl)-1-hydroxy-N′-(3-methoxy-2-methylbenzoyl)-3-oxo-2-phenyl-1,2,3,4-tetrahydrobenzo[c][1,5,2]diazaborinine-6-carbohydrazide], the solubility at 24 h by setting is: under setting [1], 417 µg/mL (≈ 833 µM); under setting [2], 540 µg/mL (≈ 1080 µM).
Turning to `Cc1cc(C)cc(C(=O)N(NC(=O)c2ccc3c(c2)N=COB3O)C(C)(C)C)c1` [compound 3, N′-(tert-butyl)-N′-(3,5-dimethylbenzoyl)-1-hydroxy-1H-benzo[c][1,5,2]oxazaborinine-6-carbohydrazide], the solubility at 24 h runs as follows: under setting [1], 90.2 µg/mL (≈ 229 µM); under setting [2], 39.4 µg/mL (≈ 100 µM).
Take `Cc1cc(C)cc(C(=O)N(NC(=O)c2ccc3c(c2)B(O)NCC3)C(C)(C)C)c1` [compound 18, N′-(tert-butyl)-N′-(3,5-dimethylbenzoyl)-1-hydroxy-1,2,3,4-tetrahydrobenzo[c][1,2]azaborinine-7-carbohydrazide]: the solubility at 24 h is 492 µg/mL (≈ 1250 µM) under setting [1] and 505 µg/mL (≈ 1280 µM) under setting [2].
The matching figures for `COc1cccc(C(=O)NN(C(=O)c2ccc(B(O)O)c(NS(=O)(=O)c3ccccc3)c2)C(C)(C)C)c1C` [compound 16, (4-(1-(tert-butyl)-2-(3-methoxy-2-methylbenzoyl)hydrazine-1-carbonyl)-2-(phenylsulfonamido)phenyl)boronic acid]: 24.1 µg/mL (≈ 44.7 µM) and 6.9 µg/mL (≈ 12.8 µM).
